From ChEMBL document CHEMBL1201862, “PubChem BioAssay data set” (2004)
The source made the active and inactive calls.

How the values were obtained:
[1] = biological target: Beta-2 adrenergic receptor (Homo sapiens, UniProt P07550); assay: ADRB2 activation measured by internalization – cell-based, FAP fluorogen, flow cytometry, cherry pick 1, dose response (AID 588763); type: functional
[2] = biological target: T1, G-protein coupled receptor 35 (Homo sapiens, UniProt Q9HC97); assay: inhibition of zaprinast-stimulated GPR35 beta-arrestin translocation – imaging, U2OS, beta-arrestin-GFP, zaprinast agonist, primary screen (AID 2058); type: functional;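 also: antagonist potency meaning inhibition of agonist-induced arrestin redistribution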
[3] = biological target: T1, G-protein coupled receptor 35; assay: SAR Analysis for the identification of Selective Antagonists of ERK1/2 Activity in GPR35-Overexpressing U2OS Cells. [Related pubchem assays: 2079, 2058 ]; type: functional, cell-based
Caspase-3 = biological target: T2, Caspase-3 (Homo sapiens, UniProt P42574); type: functional;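 also: Dose-response selectivity test against caspase-3 for candidate inhibitors of sentrin-specific proteases (SENPs)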
T2 sequence (P42574 whole entry): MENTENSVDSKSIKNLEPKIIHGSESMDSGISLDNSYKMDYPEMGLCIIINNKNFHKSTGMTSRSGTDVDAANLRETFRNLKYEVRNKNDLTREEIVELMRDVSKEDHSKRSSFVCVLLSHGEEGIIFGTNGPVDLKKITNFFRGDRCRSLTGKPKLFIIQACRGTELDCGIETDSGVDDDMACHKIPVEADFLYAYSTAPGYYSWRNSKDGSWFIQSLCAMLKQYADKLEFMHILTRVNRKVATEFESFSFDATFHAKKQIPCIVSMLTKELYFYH

[4] = biological target: T3, Sentrin-specific protease 7 (Homo sapiens, UniProt Q9BQF6); type: functional;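 also: Luminescence-based dose-response confirmation of ultra-high-throughput screening hits, measuring inhibition of SENP7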
T3 sequence (Q9BQF6 whole entry): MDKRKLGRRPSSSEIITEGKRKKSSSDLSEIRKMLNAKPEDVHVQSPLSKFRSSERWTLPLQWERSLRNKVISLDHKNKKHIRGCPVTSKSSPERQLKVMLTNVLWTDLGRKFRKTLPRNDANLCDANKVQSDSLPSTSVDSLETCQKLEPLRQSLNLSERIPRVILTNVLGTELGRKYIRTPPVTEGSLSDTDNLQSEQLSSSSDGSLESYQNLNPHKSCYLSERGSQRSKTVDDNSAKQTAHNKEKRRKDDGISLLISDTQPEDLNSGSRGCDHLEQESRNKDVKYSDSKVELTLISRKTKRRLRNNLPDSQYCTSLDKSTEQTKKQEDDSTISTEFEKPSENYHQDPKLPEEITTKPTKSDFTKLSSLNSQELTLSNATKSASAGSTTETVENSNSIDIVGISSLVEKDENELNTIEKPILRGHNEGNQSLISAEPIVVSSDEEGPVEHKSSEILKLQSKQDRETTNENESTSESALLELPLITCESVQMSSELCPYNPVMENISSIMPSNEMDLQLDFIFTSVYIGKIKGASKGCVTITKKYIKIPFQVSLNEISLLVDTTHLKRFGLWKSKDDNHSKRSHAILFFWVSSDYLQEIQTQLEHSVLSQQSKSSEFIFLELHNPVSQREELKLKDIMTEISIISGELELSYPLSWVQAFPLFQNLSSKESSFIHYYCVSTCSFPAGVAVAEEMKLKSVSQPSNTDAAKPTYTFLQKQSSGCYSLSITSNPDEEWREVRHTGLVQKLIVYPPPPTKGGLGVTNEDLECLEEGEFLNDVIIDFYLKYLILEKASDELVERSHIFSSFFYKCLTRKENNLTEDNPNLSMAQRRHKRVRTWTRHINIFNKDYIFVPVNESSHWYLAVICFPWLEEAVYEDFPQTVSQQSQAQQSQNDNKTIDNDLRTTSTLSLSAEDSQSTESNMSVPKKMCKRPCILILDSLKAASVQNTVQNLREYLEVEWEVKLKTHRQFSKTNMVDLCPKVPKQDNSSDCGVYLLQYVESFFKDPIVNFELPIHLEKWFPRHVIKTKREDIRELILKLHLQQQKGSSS

[5] = biological target: T4, Sentrin-specific protease 6 (Homo sapiens, UniProt Q9GZR1); type: functional;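 also: Luminescence-based dose-response confirmatory assay of SENP6 inhibition, following up an ultra-high-throughput screen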
T4 sequence (Q9GZR1 whole entry): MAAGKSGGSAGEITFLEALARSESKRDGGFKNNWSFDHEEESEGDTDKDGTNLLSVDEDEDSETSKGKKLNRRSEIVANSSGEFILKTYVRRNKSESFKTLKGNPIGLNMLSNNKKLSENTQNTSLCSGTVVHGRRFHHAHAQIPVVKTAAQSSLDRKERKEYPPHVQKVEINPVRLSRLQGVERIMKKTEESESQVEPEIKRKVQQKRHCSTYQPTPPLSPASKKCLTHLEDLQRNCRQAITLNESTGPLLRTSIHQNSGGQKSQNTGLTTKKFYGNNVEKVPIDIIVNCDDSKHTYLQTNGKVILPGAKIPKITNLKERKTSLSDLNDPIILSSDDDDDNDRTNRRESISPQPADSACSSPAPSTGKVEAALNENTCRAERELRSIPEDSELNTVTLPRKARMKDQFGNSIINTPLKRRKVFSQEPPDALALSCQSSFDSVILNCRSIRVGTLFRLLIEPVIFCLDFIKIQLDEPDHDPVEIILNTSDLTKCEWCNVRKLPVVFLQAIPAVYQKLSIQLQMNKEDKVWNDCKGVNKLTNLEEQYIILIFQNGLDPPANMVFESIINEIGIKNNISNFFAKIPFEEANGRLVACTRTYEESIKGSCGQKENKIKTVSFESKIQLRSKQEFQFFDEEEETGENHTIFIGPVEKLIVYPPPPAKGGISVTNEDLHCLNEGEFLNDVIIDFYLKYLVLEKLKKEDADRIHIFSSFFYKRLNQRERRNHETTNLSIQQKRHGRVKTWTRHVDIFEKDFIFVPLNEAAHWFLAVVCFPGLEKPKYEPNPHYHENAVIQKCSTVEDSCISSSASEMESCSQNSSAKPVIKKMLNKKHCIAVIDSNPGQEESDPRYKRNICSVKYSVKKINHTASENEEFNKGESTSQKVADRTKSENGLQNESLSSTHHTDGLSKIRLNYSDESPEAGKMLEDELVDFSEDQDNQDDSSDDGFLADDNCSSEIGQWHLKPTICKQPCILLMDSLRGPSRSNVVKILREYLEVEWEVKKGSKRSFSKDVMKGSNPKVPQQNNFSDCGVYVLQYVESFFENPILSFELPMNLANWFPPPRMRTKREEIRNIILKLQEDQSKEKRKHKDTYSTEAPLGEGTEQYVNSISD

[6] = biological target: T5, Sentrin-specific protease 8 (Homo sapiens, UniProt Q96LD8); type: functional;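 also: luminescence read-out of SENP8 inhibition, dose-response confirmation following an ultra-high-throughput screen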
T5 sequence (Q96LD8 whole entry): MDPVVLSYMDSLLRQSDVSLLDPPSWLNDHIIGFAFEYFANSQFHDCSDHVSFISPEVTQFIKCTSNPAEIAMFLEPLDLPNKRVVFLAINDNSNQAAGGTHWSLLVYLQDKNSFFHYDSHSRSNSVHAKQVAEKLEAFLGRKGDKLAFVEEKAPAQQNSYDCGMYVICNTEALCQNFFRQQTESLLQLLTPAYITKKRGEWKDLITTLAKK

[7] = biological target: G-protein coupled receptor 55 (Homo sapiens, UniProt Q9Y2T6); assay: blockers of GPR55 signalling, imaged – imaging, image-based, counter-screen for GPR35 antagonist project, SAR follow-up (AID 2397); type: functional
[8] = decrease of insulin promoter-GFP reporter – imaging, high-content screening, mouse beta cells (AID 1628); type: functional; settings: MIN6
[9] = MIN6 cell viability loss – mouse insulinoma, cytotoxicity control, dose response (AID 2122); type: functional;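 also: confirmatory high-throughput counterscreen run to flag cytotoxic compounds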
[10] = microbe, parasite or virus in culture; type: functional; settings: Mycobacterium tuberculosis
[11] = biological target: FAD-linked sulfhydryl oxidase ALR (Homo sapiens, UniProt P55789); assay: ALR-catalysed DTT oxidation blockers – biochemical, H2O2 detection, luminescence, cherry-pick, dose response (AID 493248)
[12] = biological target: 26S proteasome non-ATPase regulatory subunit 14 (Homo sapiens, UniProt O00487); assay: inhibition of proteasome subunit RPN11 – biochemical, fluorescence polarization, uHTS hits, confirmation (AID 602368); type: functional
[13] = biological target: 72 kDa type IV collagenase (Homo sapiens, UniProt P08253); assay: Dose Response validation of uHTS RPN11 inhibitor hits using a MMP-2 Fluorescence assay.; type: functional
Prothrombin = Prothrombin (Bos taurus, UniProt P00735); assay: thrombin protease inhibitors – biochemical, fluorescence polarization, uHTS hits, dose response (AID 602369); type: functional
Cytochrome P450 3A4 = Cytochrome P450 3A4 (Homo sapiens, UniProt P08684); settings: Potency;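 also: confirmatory qHTS run detecting inhibitors and substrates of CYP3A4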
[14] = biological target: Voltage-gated inwardly rectifying potassium channel KCNH2 (Homo sapiens, UniProt Q12809); settings: Potency;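 also: confirmatory quantitative high-throughput screen measuring inhibition of hERG channel activity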
[15] = biological target: Delta-type opioid receptor (Homo sapiens, UniProt P41143); assay: Counterscreen for agonists of heterodimerization of the mu 1 (OPRM1) and delta 1 (OPRD1) opioid receptors: Luminescence-based cell-based high throughput dose response assay to identify agonists of OPRD1 homodimerization. [Related pubchem assays (depositor defined):AID504326, AID504355, AID504692, AID504904, AID504905]; type: functional
Mu-type opioid receptor = Mu-type opioid receptor (Homo sapiens, UniProt P35372); assay: Counterscreen for agonists of heterodimerization of the mu 1 (OPRM1) and delta 1 (OPRD1) opioid receptors: Luminescence-based cell-based high throughput dose response assay to identify agonists of OPRM1 homodimerization.; type: functional;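 also: U2OS cells expressing OPRM1 and beta-arrestin as split beta-galactosidase partners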
[16] = biological target: 5-hydroxytryptamine receptor 5A (Homo sapiens, UniProt P47898); assay: Counterscreen for agonists of OPRM1-OPRD1 heterodimerization: luminescence-based cell-based high throughput dose response assay to identify agonists of 5-hydroxytryptamine (serotonin) 5A receptor (HTR5A). [Related pubchem assays (depositor defined):AID504326, AID504355, AID504692, AID504904, AID504905]; type: functional
[17] = biological target: Carboxy-terminal domain RNA polymerase II polypeptide A small phosphatase 1 (Homo sapiens, UniProt Q9GZU7); assay: CTDSP1 inhibitors, concentration-response, biochemical, absorbance readout, ultra-high-throughput screen actives (AID 540297); type: functional
[18] = NIH-3T3 fibroblast cytotoxicity, dose response, cytotoxicity control, cell-based, fluorescence, Alamar Blue, secondary assay (AID 2327); type: functional;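 also: NIH-3T3 mouse fibroblasts cultured with fluconazole at 8 µg/mL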
[19] = fluconazole-exposed Candida albicans growth modulators – fluorescence, retest, confirmation (AID 2467); type: functional, cell-based
[20] = Trypanosoma cruzi growth suppression in host cells – NIH3T3 host cells, beta-gal luminescence, confirmation (AID 2044); type: functional, cell-based;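 also: intracellular parasites grown in NIH/3T3 mouse fibroblasts as host cells; luminescent beta-galactosidase reporter signal from transgenic T. cruzi replicating inside host cells; inhibitors lower the luminescence signal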
[21] = NIH3T3 cell viability loss – ATP luminescence, mouse fibroblasts, counter-screen, dose response (AID 2010); type: functional, cell-based;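 also: cells exposed to compound for about 90 hours before reading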
[22] = biological target: T6, Short transient receptor potential channel 4 (Mus musculus, UniProt Q9QUQ5); assay: calcium entry via TRPC4 opening agents – cell-based, HEK293 TRPC4/mu-opioid, Fluo-4 calcium, dose response (AID 434937); type: functional
T6 sequence (Q9QUQ5 whole entry): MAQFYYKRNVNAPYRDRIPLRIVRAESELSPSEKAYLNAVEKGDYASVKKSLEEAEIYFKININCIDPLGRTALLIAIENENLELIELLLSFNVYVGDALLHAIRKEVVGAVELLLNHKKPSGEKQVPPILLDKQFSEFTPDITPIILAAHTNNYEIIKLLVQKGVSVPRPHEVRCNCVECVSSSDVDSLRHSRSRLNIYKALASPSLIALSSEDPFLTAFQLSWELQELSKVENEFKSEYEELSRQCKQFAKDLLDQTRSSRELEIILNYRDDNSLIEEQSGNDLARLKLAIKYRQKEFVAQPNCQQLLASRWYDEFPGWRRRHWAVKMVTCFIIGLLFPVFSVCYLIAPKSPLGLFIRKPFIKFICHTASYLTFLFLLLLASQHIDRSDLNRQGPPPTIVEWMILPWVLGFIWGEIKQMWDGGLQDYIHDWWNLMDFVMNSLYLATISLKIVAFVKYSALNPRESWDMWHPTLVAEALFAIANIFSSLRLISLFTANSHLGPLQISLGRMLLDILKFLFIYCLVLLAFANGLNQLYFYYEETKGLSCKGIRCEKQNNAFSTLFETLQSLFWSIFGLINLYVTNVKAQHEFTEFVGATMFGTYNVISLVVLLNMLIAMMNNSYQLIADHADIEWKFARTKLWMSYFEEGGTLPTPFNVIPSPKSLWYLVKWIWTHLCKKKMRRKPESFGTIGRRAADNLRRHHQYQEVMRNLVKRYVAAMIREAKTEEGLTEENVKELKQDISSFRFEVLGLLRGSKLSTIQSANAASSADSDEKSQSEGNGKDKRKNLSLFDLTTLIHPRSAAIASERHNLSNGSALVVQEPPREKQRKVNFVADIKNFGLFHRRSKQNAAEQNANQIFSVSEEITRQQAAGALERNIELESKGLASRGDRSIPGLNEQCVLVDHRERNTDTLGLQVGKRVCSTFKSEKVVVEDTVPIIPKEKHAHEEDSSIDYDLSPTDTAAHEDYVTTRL

5-hydroxytryptamine receptor 5A, sequence (P47898 whole entry, the tested form may be a part): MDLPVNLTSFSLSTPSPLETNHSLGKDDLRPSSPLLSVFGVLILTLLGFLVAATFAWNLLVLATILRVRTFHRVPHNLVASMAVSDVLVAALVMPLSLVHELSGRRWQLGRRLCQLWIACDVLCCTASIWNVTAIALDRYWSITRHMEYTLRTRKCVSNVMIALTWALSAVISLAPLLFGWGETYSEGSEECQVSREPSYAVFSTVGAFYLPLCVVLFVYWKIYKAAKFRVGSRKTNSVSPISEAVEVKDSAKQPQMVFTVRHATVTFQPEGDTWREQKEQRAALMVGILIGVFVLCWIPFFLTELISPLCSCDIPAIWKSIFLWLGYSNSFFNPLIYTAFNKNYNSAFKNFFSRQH
Delta-type opioid receptor, sequence (P41143 whole entry): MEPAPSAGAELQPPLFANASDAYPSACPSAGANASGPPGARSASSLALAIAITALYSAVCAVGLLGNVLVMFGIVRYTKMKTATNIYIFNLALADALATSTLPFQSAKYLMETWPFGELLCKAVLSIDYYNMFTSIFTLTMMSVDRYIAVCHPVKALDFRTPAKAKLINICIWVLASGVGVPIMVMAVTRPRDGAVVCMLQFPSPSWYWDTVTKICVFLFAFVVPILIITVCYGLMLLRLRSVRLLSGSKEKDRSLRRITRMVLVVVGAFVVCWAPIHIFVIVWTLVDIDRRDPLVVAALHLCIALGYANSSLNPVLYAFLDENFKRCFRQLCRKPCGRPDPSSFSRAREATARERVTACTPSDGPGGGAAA
T1 sequence (Q9HC97 whole entry): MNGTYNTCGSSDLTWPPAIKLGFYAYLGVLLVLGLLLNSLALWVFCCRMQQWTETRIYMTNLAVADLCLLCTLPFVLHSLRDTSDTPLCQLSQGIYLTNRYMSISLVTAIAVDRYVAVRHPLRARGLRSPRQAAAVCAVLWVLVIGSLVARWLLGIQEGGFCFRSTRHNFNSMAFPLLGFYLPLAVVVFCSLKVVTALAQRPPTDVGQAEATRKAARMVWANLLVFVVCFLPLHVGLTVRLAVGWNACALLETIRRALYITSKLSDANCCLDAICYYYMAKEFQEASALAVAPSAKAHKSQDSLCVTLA
Voltage-gated inwardly rectifying potassium channel KCNH2, sequence (Q12809 whole entry): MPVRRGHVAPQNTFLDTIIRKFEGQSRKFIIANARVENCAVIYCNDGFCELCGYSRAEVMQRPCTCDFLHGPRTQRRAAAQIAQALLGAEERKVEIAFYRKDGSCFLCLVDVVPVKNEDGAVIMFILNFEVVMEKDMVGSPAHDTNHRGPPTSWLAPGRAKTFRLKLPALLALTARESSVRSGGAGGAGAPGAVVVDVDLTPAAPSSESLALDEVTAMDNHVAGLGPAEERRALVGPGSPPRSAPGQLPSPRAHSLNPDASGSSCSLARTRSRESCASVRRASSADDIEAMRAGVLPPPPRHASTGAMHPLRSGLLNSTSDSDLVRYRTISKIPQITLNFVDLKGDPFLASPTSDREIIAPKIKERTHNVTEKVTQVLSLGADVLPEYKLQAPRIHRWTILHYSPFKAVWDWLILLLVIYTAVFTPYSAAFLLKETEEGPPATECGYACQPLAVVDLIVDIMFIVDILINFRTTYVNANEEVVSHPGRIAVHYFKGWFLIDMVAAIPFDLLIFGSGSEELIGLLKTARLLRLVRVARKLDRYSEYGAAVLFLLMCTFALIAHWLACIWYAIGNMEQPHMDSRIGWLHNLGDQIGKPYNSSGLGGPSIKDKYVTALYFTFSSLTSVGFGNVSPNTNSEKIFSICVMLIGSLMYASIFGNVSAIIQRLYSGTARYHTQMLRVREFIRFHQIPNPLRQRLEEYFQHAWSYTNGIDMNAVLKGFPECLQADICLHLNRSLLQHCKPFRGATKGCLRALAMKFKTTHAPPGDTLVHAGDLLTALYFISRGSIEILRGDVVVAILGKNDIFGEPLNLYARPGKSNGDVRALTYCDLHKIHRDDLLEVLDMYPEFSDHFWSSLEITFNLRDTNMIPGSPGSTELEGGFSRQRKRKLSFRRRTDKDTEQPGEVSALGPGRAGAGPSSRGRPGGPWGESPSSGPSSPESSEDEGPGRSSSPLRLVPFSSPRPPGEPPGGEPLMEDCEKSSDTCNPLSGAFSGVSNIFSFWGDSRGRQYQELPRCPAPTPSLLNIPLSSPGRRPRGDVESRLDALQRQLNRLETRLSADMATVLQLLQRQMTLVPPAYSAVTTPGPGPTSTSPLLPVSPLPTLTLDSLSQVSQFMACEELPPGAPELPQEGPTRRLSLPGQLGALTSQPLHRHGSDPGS
Mu-type opioid receptor, sequence (P35372 whole entry): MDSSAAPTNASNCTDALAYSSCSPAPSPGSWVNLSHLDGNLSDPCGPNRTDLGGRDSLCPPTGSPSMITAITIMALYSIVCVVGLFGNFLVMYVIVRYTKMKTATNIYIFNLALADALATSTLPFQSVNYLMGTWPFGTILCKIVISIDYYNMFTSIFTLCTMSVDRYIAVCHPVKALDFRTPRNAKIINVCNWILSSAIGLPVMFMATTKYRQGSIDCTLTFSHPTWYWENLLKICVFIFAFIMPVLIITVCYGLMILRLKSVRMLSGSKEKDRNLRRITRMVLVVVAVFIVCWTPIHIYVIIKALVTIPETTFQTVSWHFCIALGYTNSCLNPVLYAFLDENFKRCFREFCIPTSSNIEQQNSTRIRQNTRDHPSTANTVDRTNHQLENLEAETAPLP
Cytochrome P450 3A4, sequence (P08684 whole entry): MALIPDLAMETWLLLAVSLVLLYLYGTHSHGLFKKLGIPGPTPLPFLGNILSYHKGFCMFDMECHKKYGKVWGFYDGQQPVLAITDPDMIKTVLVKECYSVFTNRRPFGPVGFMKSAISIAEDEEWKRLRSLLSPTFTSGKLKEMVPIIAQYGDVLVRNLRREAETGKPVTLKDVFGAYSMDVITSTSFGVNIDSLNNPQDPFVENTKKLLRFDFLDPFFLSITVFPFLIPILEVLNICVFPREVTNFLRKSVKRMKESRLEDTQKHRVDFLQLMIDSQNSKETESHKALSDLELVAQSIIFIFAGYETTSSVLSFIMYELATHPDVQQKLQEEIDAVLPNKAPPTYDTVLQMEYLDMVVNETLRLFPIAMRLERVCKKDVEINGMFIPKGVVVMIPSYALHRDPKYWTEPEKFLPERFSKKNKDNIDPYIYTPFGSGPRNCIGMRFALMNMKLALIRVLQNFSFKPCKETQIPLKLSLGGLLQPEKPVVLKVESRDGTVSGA
Beta-2 adrenergic receptor, sequence (P07550 whole entry): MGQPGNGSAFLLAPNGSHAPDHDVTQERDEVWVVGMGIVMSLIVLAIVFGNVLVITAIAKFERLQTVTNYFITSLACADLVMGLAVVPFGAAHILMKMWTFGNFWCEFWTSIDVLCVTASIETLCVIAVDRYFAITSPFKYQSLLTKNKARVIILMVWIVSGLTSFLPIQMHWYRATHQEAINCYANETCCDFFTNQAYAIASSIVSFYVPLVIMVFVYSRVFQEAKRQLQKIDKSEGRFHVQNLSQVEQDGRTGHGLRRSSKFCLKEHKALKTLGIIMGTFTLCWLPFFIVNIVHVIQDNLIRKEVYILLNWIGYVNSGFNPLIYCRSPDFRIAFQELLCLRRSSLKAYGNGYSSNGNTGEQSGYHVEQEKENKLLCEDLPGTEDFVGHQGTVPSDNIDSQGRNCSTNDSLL
FAD-linked sulfhydryl oxidase ALR, sequence (P55789 whole entry): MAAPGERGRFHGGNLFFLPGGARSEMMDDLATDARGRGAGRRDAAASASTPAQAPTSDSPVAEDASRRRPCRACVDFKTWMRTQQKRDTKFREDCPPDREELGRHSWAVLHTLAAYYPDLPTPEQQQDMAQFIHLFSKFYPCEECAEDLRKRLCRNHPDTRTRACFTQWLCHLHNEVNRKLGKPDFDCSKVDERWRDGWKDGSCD
72 kDa type IV collagenase, sequence (P08253 whole entry): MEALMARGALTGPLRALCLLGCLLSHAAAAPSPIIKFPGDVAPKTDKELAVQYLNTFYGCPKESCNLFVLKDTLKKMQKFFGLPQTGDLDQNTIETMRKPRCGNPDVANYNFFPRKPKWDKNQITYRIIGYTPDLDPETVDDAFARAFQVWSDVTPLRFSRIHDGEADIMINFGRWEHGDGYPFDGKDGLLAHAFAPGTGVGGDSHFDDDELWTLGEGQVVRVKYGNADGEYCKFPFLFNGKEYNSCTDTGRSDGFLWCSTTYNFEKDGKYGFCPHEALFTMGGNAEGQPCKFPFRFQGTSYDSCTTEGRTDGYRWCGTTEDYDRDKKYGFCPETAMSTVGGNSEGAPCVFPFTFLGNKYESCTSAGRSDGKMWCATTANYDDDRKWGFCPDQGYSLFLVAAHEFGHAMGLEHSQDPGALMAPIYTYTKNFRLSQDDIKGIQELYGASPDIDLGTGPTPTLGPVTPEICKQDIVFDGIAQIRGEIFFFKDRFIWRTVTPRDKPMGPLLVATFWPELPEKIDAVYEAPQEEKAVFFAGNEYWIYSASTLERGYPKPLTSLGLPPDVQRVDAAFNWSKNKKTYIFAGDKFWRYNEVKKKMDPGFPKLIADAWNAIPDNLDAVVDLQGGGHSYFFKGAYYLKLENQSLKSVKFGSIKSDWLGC
Carboxy-terminal domain RNA polymerase II polypeptide A small phosphatase 1, sequence (Q9GZU7 whole entry, the tested form may be a part): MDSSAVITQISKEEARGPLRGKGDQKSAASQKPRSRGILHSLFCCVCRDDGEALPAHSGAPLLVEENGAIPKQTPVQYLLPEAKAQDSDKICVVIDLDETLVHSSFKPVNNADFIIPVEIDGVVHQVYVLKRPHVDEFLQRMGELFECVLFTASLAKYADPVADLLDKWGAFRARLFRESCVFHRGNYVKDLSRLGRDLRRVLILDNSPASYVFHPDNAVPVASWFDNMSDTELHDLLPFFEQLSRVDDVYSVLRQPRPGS
26S proteasome non-ATPase regulatory subunit 14, sequence (O00487 whole entry): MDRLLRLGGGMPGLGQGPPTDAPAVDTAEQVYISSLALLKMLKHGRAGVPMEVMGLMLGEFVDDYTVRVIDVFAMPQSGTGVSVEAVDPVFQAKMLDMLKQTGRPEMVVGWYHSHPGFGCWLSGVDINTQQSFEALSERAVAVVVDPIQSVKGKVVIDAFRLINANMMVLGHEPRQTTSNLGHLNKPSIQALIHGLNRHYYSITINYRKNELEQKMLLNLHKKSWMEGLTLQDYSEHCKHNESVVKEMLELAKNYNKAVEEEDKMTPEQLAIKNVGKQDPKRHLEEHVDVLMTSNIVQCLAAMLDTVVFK

COc1ccc(CNC(=O)CCCCCNc2nc(S)nc3ccccc23)cc1
EC50 [1]: 0.0255 µM (active)

O=C(CCCN1C(=O)S/C(=C/c2ccccc2)C1=S)Nc1ccc(C(=O)O)cc1
IC50 [2]: 1.51 µM (active) | IC50 [3]: 1.45 µM (active) | IC50 (Caspase-3): 23.5 µM (active) | IC50 [4]: 21.3 µM (active) | IC50 [5]: 23.7 µM (active) | IC50 [6]: 29.8 µM (active) | IC50 [7]: > 32 µM (inactive)

CCOc1ccc(C(O)Cn2c(=N)n(CCN3CCCCC3)c3ccccc32)cc1 (configuration not stated)
IC50 [8]: 2.55 µM (active) | IC50 [9]: 5.18 µM (active)

CCN(CC)c1ccc(N)cc1
CC50 [10]: 27.9 µM (active) | AC50 [11]: 6.78 µM (active) | IC50 [12]: 4.69 µM (active) | IC50 [13]: > 100 µM (inactive) | IC50 (Prothrombin): 5.11 µM (active) | AC50 (Cytochrome P450 3A4): 25.1 µM (inconclusive) | AC50 [14]: 10 µM (inconclusive)

COc1ccc(-n2c3c(cc(C(=O)NNc4ccccc4C)c2=O)C(=O)CC(C)(C)C3)cc1
EC50 [15]: > 92.5 µM (inactive) | EC50 (Mu-type opioid receptor): 14.5 µM (inactive) | EC50 [16]: > 92.5 µM (inactive)

Cc1cnc(C(=O)OCc2nc(O)c3sccc3n2)cn1
IC50 [17]: 7.9 µM (active)

CCC(C)OC(=O)C[N+](C)(C)CCOC1CC2CCC1(C)C2(C)C (configuration not stated)
EC50 [18]: > 150 µM (inconclusive) | IC50 [8]: 0.418 µM (active) | IC50 [9]: < 0.25 µM (active) | EC50 [19]: 4.36 µM (active) | EC50 [20]: 0.341 µM (active) | EC50 [21]: > 60 µM (not active)

OCC1(CC2CCCCO2)CCN(Cc2ccccc2-c2ccco2)CC1 (configuration not stated)
EC50 [22]: 0.668 µM (active) | EC50 [15]: > 92.4 µM (inactive) | EC50 (Mu-type opioid receptor): > 92.4 µM (inactive) | EC50 [16]: > 92.4 µM (inactive)

CCC(C)(C)C(=O)O [DIMEBUTIC ACID]
AC50 [14]: 12.6 µM (inconclusive)
